Data reported in patent US20130236480A1, “TRANSGLUTAMINASE 2 INHIBITORS FOR USE IN THE PREVENTION OR TREATMENT OF RAPIDLY PROGRESSIVE GLOMERULONEPHRITIS” (priority 2010, published 2013).

System: primary culture of mouse podocytes
Assay: Wound assay of podocyte migration
Type: cell-based
Conditions: 100 μM MDC in DMSO, differentiated podocytes, p<0.05 vs. vehicle alone (n=3)
Protocol: FIG. 4: Distance of migration of differentiated podocytes within 20 h in the wound assay. A wound assay was used to assess podocyte migration. Differentiated cells were seeded in a 35 mm μ-Dish (Ibidi) forming two confluent monolayers separated by a silicon insert of 500 μm width. After 1 day, the silicon insert was removed and 100 μM of MDC (monodansylcadaverin, Sigma-Aldrich #D4008) diluted in DMSO, a TG2 inhibitor, was added or not. Cells were fixed 20 h later and the distance between the two monolayers was measured. *p<0.05 vs. vehicle alone (n=3 per condition).
In vivo podocytes are terminally differentiated and stationary cells. During crescent formation in anti-GBM GN in mice, however, podocytes assume a migratory phenotype, attach with their apical membrane onto the parietal basement membrane and start to proliferate.

Compound: CN(C)c1cccc2c(S(=O)(=O)NCCCCCN)cccc12 [monodansylcadaverine]
- Migration of podocytes (distance of migration within 20 h in the wound assay): significantly blunted
